Measurements from patent publication US4159328A, “Tetrahydro-1,3,5-thiadiazin-4-one derivative” (Nihon Nohyaku Co., Ltd., priority 1977, dated 1979).
Read-outs that look alike come from different tables or passages of the source.

What was measured:
[1] = tested on: larvae of green rice leafhopper (Nephotettix cincticeps Uhler); assay: Test Example 5: activity against larvae of green rice leafhopper; type: in vivo; conditions: 168 h
In short: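 Rice seedlings at 1.5 leaf age dipped 30 seconds in 400 ppm test composition, air-dried, then infested with five second-instar larvae. Kept at 25° C; mortality scored seven days after treatment, three replicates.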

[2] = tested on: 5th-instar larvae of brown planthopper; assay: mortality in 7 days after spraying on 5th-instar larvae of brown planthopper; type: in vivo; conditions: Nilaparvata lugens, 168 h; for mortality at 100 ppm: 5th-instar larvae, 7 days
[3] = tested on: larvae of bug. (Togo hemipterus Scott); assay: Test Example 9: insecticidal activity against larvae of bug; type: in vivo; conditions: 120 h
Procedure: Insecticidal activity against larvae of bug. (Togo hemipterus Scott).
Test method: Into a glass tube (1.6 cm in internal diameter and 9 cm in length), was added 1 ml of a test composition in 10 ppm concentration just to moisten the absorbent cotton. Five rice seeds and five first-instar larvae were introduced into the glass tube and the tube end was covered with a piece of Japanese paper. The glass tube was kept in a constant temperature cabinet at 25° C. Five days after treatment, the dead-and-survival was inspected to calculate the mortality (3-replication test).

[4] = tested on: cirrus red mite (Panonychus citri McGregor); assay: Test Example 4: activity to citrus red mite (Rothamstead method); type: in vivo; conditions: two days after treatment, 25° C.; 2880 min
Procedure: Activity to cirrus red mite (Panonychus citri McGregor).
Testing method: The test was performed by Rothamstead method. A test composition was sprayed by means of a spray gun over grapefruit leaves infested with citrus red mites. After air-drying the grapefruit was left standing in a constant temperature cabinet at 25° C. Two days after the treatment, the number of survived mites was counted to calculate the mortality.

[5] = tested on: larvae of 28-spotted lady beetle (Epilachna vigintioctopunctana Fabricius); assay: Test Example 8: insecticidal activity against larvae of 28-spotted lady beetle; type: in vivo; conditions: 120 h
In short: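 Tomato leaflets dipped 30 s in 100 ppm test composition, air-dried, and placed in Petri dishes with seven second-instar larvae at 25° C. Mortality scored five days after treatment, two replicates.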

[6] = tested on: larvae of white-backed planthopper (Sogatella furcifera Horvath); assay: Test Example 2: insecticidal activity against larvae of white-backed planthopper; type: in vivo; conditions: 168 h
In short: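 Rice seedlings at 1.5-leaf stage were dipped 30 s in 400 ppm test composition, air-dried, and infested with five first-instar larvae. Tubes were held at 25°C, and mortality was scored at 7 days from triplicate tests.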

[7] = tested on: larvae of house mosquito (Culex pipiens pallens Coquillett); assay: Test Example 6: insecticidal activity to larvae of house mosquito; type: in vivo; conditions: 120 h
In short: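 Twenty first-instar Culex pipiens pallens larvae placed with feed in test composition diluted in deionized water to 10 ppm. Kept at 25 °C, and mortality counted five days after treatment.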

mammalian acute toxicity = conditions: mouse, in vivo, mice, male
Procedure: For example, 2-t-butylimino-3-isopropyl-5-phenyltetrahydro-1,3,5-thiadiazin-4-one (compound No. 145) and 2-t-butylimino-3-isopropyl-5-p-tolyltetrahydro-1,3,5-thiadiazin-4-one (compound No. 318) have LD50 (mice, male) of 10,000 mg/kg or higher. Many other compounds of this invention have LD50 (mice, male) of 5,000 mg/kg or higher.

[8] = tested on: two-spotted spider mite (Tetranychus urticae Koch); assay: Test Example 3: activity to two-spotted spider mite; type: in vivo; conditions: 120 h, 1,000 ppm, 5 days after treatment
Description: Activity to two-spotted spider mite (Tetranychus urticae Koch).
Testing method: Two-spotted spider mites were set free on the pot-planted soybean in a greenhouse. On the next day, a test composition of 1,000 ppm concentration was sprayed over the soybean by means of a spray gun. Two days or five days after the treatment, dead-and-survival was inspected to calculate the mortality.

[9] = tested on: larvae of brown planthopper (Nilaparvata lugens Stahl); assay: Test Example 1: insecticidal activity against larvae of brown planthopper; type: in vivo; conditions: 120 h, third-instar larvae, 25° C., 5 days after treatment
In short: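 Rice seedlings at 1.5-leaf stage were dipped for 30 s in a 400 ppm test composition, air-dried, and infested with third-instar N. lugens larvae. After holding at 25 °C, mortality was scored 5 or 7 days post-treatment from three replicates.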

Row | SMILES | mortality at 400 ppm [1] | mortality at 100 ppm [2] | mortality at 10 ppm [3] | Mortality [4] | mortality at 100 ppm [5] | mortality at 400 ppm [6] | mortality at 10 ppm [7] | LD50 (mammalian acute toxicity) | mortality at 400 ppm ([1]; 400 ppm, second-instar larvae, 25° C., seven days after treatment, read-out: Mortality) | mortality at 1000 ppm [8] | mortality at 400 ppm ([6]; 400 ppm, first-instar larvae, 25° C., seven days after treatment, read-out: Mortality) | mortality at 400 ppm [9] | mortality at 200 ppm ([2]; read-out: mortality in 7 days after spraying)
1 | CC(C)N1C(=O)N(c2ccccc2)CSC1=NC(C)(C)C [Compound 145, 2-t-Butylimino-3-isopropyl-5-phenyl-tetrahydro-1,3,5-thiadiazin-4-one] | 100% | 100% | 100% | 100% | 100% | 100% | 100% | ≥ 10000 mg/kg | – | – | – | – | –
2 | Cc1ccc(N2CSC(=NC(C)(C)C)N(C(C)C)C2=O)cc1 [Compound 318, 2-t-Butylimino-3-isopropyl-5-(p-tolyl)-tetrahydro-1,3,5-thiadiazin-4-one] | – | 100% | – | – | 100% | – | 90% | ≥ 10000 mg/kg | 100% | 100% | 100% | 100% | –
3 | CNC(=O)Oc1cccc2ccccc12 [NAC, 1-naphthyl N-methylcarbamate, reference compound] | – | – | – | – | – | – | – | – | – | – | – | – | 30%
